In patent US7416728B2, “Growth blocking agents” (Kyto Biopharma, Inc., priority 1992, dated 2008):

What was measured:
Acute leukemia = conditions: drug combined with vitamin B12 depletion (nitrous oxide); acute leukemia/rats; cited from earlier work
[1] = test system: Raji Burkitt lymphoma cells; assay: Subcutaneous Raji Burkitt lymphoma in nu/nu mice, tumor size; type: in vivo
Protocol: Nu/nu mice are injected subcutaneously with 1 million Raji Burkitt lymphoma cells. After two weeks, barely palpable nodules are present at the injection site. Measurements are made in three dimensions with a planarimeter and equally sized tumors assigned to experimental groups of 10 mice. […] Therapy is administered once weekly. Controls of antibody and drug alone, as well as vehicle controls, are included. Mice are monitored visually for toxicity, death, and tumor size weekly for 8 weeks, at which time the experiment is terminated, the mice sacrificed, and the tumors removed and weighed.

Myelocytic leukemia = conditions: drug combined with vitamin B12 depletion (nitrous oxide); myelocytic leukemia/rats; cited from earlier work
[2] = test system: Raji Burkitt lymphoma cells; assay: Cell viability by reduction of tetrazolium dye, three days, with and without methotrexate; type: cell-based, human; conditions: 100% lysis control = .047
Protocol: Antibody D2/20 at a range of concentrations is incubated with Raji Burkitt lymphoma cells in microtiter plates for three days with and without chemotherapeutic drugs. Cell viability is measured by reduction of tetrazolium dye. Only viable cells metabolize the dye to an insoluble, colored product which is subsequently solubilized and read in a spectrophotometer.

## CN(Cc1cnc2nc(N)nc(N)c2n1)c1ccc(C(=O)N[C@@H](CCC(=O)O)C(=O)O)cc1 [Methotrexate, methotrexate]
Acute leukemia
  Therapeutic Results: synergistic
[1]; week 1, methotrexate 5 Milligrams/M^2 i.v. once weekly
  average of serial tumor measurements converted to weight: .07 grams
[1]; week 1, methotrexate 10 Milligrams/M^2 i.v. once weekly
  average of serial tumor measurements converted to weight: .05 grams
[1]; week 1, methotrexate 50 Milligrams/M^2 i.v. once weekly
  average of serial tumor measurements converted to weight: .04 grams
[1]; week 2, methotrexate 5 Milligrams/M^2 i.v. once weekly
  average of serial tumor measurements converted to weight: .14 grams
[1]; week 2, methotrexate 10 Milligrams/M^2 i.v. once weekly
  average of serial tumor measurements converted to weight: .12 grams
[1]; week 2, methotrexate 50 Milligrams/M^2 i.v. once weekly
  average of serial tumor measurements converted to weight: .10 grams
[1]; week 3, methotrexate 5 Milligrams/M^2 i.v. once weekly
  average of serial tumor measurements converted to weight: .43 grams
[1]; week 3, methotrexate 10 Milligrams/M^2 i.v. once weekly
  average of serial tumor measurements converted to weight: .30 grams
[1]; week 3, methotrexate 50 Milligrams/M^2 i.v. once weekly
  average of serial tumor measurements converted to weight: .25 grams
[1]; week 4, methotrexate 5 Milligrams/M^2 i.v. once weekly
  average of serial tumor measurements converted to weight: .70 grams
[1]; week 4, methotrexate 10 Milligrams/M^2 i.v. once weekly
  average of serial tumor measurements converted to weight: .53 grams
[1]; week 4, methotrexate 50 Milligrams/M^2 i.v. once weekly
  average of serial tumor measurements converted to weight: .41 grams
[1]; week 5, methotrexate 5 Milligrams/M^2 i.v. once weekly
  average of serial tumor measurements converted to weight: 1.2 grams
[1]; week 5, methotrexate 10 Milligrams/M^2 i.v. once weekly
  average of serial tumor measurements converted to weight: .92 grams
[1]; week 5, methotrexate 50 Milligrams/M^2 i.v. once weekly
  average of serial tumor measurements converted to weight: .73 grams
[1]; week 6, methotrexate 5 Milligrams/M^2 i.v. once weekly
  average of serial tumor measurements converted to weight: 2.6 grams
[1]; week 6, methotrexate 10 Milligrams/M^2 i.v. once weekly
  average of serial tumor measurements converted to weight: 2.1 grams
[1]; week 6, methotrexate 50 Milligrams/M^2 i.v. once weekly
  average of serial tumor measurements converted to weight: 1.4 grams
[1]; week 7, methotrexate 5 Milligrams/M^2 i.v. once weekly
  average of serial tumor measurements converted to weight: 4.8 grams
[1]; week 7, methotrexate 10 Milligrams/M^2 i.v. once weekly
  average of serial tumor measurements converted to weight: 4.8 grams
[1]; week 7, methotrexate 50 Milligrams/M^2 i.v. once weekly
  average of serial tumor measurements converted to weight: 2.3 grams
[1]; week 8, methotrexate 5 Milligrams/M^2 i.v. once weekly
  average of serial tumor measurements converted to weight: 7.2 grams
[1]; week 8, methotrexate 10 Milligrams/M^2 i.v. once weekly
  average of serial tumor measurements converted to weight: 6.9 grams
[1]; week 8, methotrexate 50 Milligrams/M^2 i.v. once weekly
  average of serial tumor measurements converted to weight: 3.4 grams
Myelocytic leukemia
  Therapeutic Results: synergistic
[2]; antibody 0, methotrexate 0.1 micrograms/ml
  cell viability, tetrazolium dye reading: .993
[2]; antibody 0, methotrexate 1 micrograms/ml
  cell viability, tetrazolium dye reading: .798

## O=c1[nH]cc(F)c(=O)[nH]1 [Clone 5-FU, 5-fluorouracil]
Acute leukemia
  Therapeutic Results: additive
Myelocytic leukemia
  Therapeutic Results: additive

## NC1(C(=O)O)CCCC1 [cycloleucine]
Acute leukemia
  Therapeutic Results: synergistic
Myelocytic leukemia
  Therapeutic Results: additive
